The structures appear in SMILES notation.

For the test, the target named is T1, MAGL protein (Homo sapiens, UniProt Q99685).
T1 sequence (Q99685 1-303): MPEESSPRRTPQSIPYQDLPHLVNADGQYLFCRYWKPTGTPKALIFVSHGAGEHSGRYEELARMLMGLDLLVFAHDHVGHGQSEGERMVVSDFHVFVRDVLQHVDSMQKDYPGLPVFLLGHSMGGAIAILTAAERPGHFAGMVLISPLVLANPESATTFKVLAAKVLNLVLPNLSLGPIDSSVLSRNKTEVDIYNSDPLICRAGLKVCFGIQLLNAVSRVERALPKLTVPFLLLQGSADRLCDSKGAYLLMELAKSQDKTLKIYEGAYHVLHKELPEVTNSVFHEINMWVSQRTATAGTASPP
The experiment in a line: 2-AG assay: MAGL inhibitory activity by hydrolysis of 2-arachidonoylglycerol to arachidonic acid, followed by mass spectrometry. In kind it is biochemical. Particulars: 8 μM 2-arachidonoylglycerol, 15 min preincubation, 30 min reaction at RT, RapidFire MS readout. The protocol:
Compounds of formula (I) were profiled for MAGL inhibitory activity by determining the enzymatic activity by following the hydrolysis of the natural substrate 2-arachidonoylglycerol (2-AG) resulting in arachidonic acid, which can be followed by mass spectrometry. This assay is hereinafter abbreviated “2-AG assay”. The 2-AG assay was carried out in 384 well polypropylene assay plates. Compound dilutions were made in 100% DMSO in a polypropylene plate in 3-fold dilution steps to give a final concentration range in the assay from 12.5 μM to […]. Compound dilutions were added to MAGL protein in assay buffer (50 mM TRIS, 1 mM EDTA, 0.01% (v/v) Tween-20, 2.5% (v/v) DMSO). After shaking, the plate was incubated for 15 min at RT. To start the reaction, 2-arachidonoylglycerol in assay buffer was added. The final concentrations in the assay was […] for MAGL protein and 8 μM 2-arachidonoylglyerol. After shaking and 30 min incubation at RT, the reaction was quenched by the addition of two assay volumes of acetonitrile containing 4 μM of d8-arachidonic acid. The amount of arachidonic acid formed was traced by an online SPE system (Agilent Rapidfire) coupled to a triple quadrupole mass spectrometer. A C18 SPE cartridge (Agilent G9205A) was used in an acetonitrile/water liquid setup. The mass spectrometer was operated in negative electrospray mode following the mass transitions 303.1→259.1 for arachidonic acid and 311.1→267.0 for d8-arachidonic acid. The activity of the compounds was calculated based on the ratio of intensities [arachidonic acid/d8-arachidonic acid].

As a reminder, the IC50 is the midpoint of a concentration-inhibition curve. Read a low IC50 as greater potency in that assay. `O=C(N1CC2(CC(Cc3ccc(F)cc3F)C2)C1)N1CC2(CC(c3nnc(C4CC4)[nH]3)C2)C1` [compound 35] had a half-inhibitory concentration (IC50) of 0.07 nM. On to `O=C(N1CC(OCC2(C(F)(F)F)CC2)C1)N1CC2(CC(c3nnc(C4CC4)[nH]3)C2)C1` [compound 331], for which half-maximal inhibition (IC50) was put at 109 nM. In turn, `CS(=O)(=O)c1ccc(CC2CC3(C2)CN(C(=O)N2CC4(CC(c5nnc(C6CC6)[nH]5)C4)C2)C3)c(F)c1` [compound 130] gave a half-inhibitory concentration (IC50) of 0.09 nM. With `O=C(N1CC2(CC(Cc3ccc4ncnn4c3)C2)C1)N1CC2(CC(c3nc(C4(O)CC4)n[nH]3)C2)C1` [compound 626] the figure was 56.4 nM; with `O=C(N1CC2(CC(Oc3ncc(C(F)(F)F)cc3F)C2)C1)N1CC2(CC(c3nc(C4CC4)n[nH]3)C2)C1` [compound 665], 0.23 nM. With `O=C(N1CC2(CC(c3nc(C4CC(F)(F)C4)n[nH]3)C2)C1)N1CC2(CN(Cc3cc(C(F)(F)F)ns3)C2)C1` [compound 561] the figure was 1450 nM; with `CS(=O)(=O)c1ccc(CC2CC3(C2)CN(C(=O)N2CC4(CC(c5nnc(C6CC6)[nH]5)C4)C2)C3)cc1C(F)(F)F` [compound 46], 0.9 nM.

In turn, `CS(=N)(=O)c1cccc(CC2CC3(C2)CN(C(=O)N2CC4(CC(c5nnc(C6CC6)[nH]5)C4)C2)C3)c1` (centres unmarked) [compound 124] registered an IC50 of 2.46 nM.

Turning to `CS(=O)(=O)c1ccc(C23CC(C4CN(C(=O)N5CC6(CC(c7nc(C8CC8)n[nH]7)C6)C5)C4)(C2)C3)cc1` [compound 786], the half-maximal inhibitory concentration (IC50) was found to be 8.01 nM. With `O=C(N1CC(c2ccc(C3(C(F)(F)F)CC3)cn2)C1)N1CC2(CC(c3nc(C4(O)CC4)n[nH]3)C2)C1` [compound 471] the figure was 20.3 nM.

In turn, `O=C(N1CC2(CCN(S(=O)(=O)C34CC(C(F)(F)F)(C3)C4)CC2)C1)N1CC2(CC(c3nnc(C4(O)CC4)[nH]3)C2)C1` [compound 238] displayed a 50% inhibitory concentration (IC50) of 354 nM. With `CCOc1cc(C)n(-c2ccc(C3CN(C(=O)N4CC5(CC(c6nnc(C7CC7)[nH]6)C5)C4)C3)cc2)n1` [Example 559, [6-(5-cyclopropyl-4H-1,2,4-triazol-3-yl)-2-azaspiro[3.3]heptan-2-yl]-[3-[4-(3-ethoxy-5-methyl-pyrazol-1-yl)phenyl]azetidin-1-yl]methanone] the figure was 0.46 nM; with `O=C(N1CC2(CC(c3nnc(C4(O)CC4)[nH]3)C2)C1)N1CC2(C1)CN(S(=O)(=O)c1ccccc1OC(F)(F)F)C2` [compound 95], 47.5 nM. In turn, `Cn1nc(C(F)(F)F)cc1CN1CCC2(CC1)CN(C(=O)N1CC3(CC(c4nc(C5CC5)n[nH]4)C3)C1)C2` [compound 539] showed an IC50 of 9.25 nM. The figure for `O=C(N1CC2(CC(Cc3noc(C(F)(F)F)n3)C2)C1)N1CC2(CC(c3nc(C4CC4)n[nH]3)C2)C1` [compound 794] is 1.03 nM.

As for `O=C(N1CC2(CCC(Oc3cc(Cl)ccc3Cl)CC2)C1)N1CC2(CC(c3nnc(C4(O)CC4)[nH]3)C2)C1` [compound 346], the IC50 worked out at 0.13 nM. With `N=S(=O)(c1ccc(C2CN(C(=O)N3CC4(CC(c5nc(C6(O)CC6)n[nH]5)C4)C3)C2)cc1)C(F)(F)F` (centres unmarked) [compound 697] the figure was 2.65 nM. With `O=C(N1CC2(CC(c3nc(C4CC4)n[nH]3)C2)C1)N1CC2(CN(Cc3sncc3C(F)(F)F)C2)C1` [compound 700] the figure was 2.56 nM. The figure for `O=C(N1CC2(CC(Cc3cc(C(F)F)c[nH]c3=O)C2)C1)N1CC2(CC(c3nc(C4CC4)n[nH]3)C2)C1` [compound 956] is 1.48 nM; for `O=C(N1CC2(CC(Cc3cncc(S(=O)(=O)C(F)(F)F)c3)C2)C1)N1CC2(CC(c3nc(C4(O)CC4)n[nH]3)C2)C1` [compound 560] it is 1.25 nM; for `O=C(N1CC2(CC(Cc3cc(C(F)F)[nH]n3)C2)C1)N1CC2(CC(c3nc(C4CC(F)(F)C4)n[nH]3)C2)C1` [compound 495] it is 140 nM.

`N#Cc1cnn(CC2CC3(C2)CN(C(=O)N2CC4(CC(c5nc(C6CC6)n[nH]5)C4)C2)C3)c1` [compound 801] displayed a concentration for half-maximal inhibition (IC50) of 8.16 nM. With `O=C(N1CC2(CC(c3nc(C4CC4)n[nH]3)C2)C1)N1CC2(CN(Cc3cc(C4CC4)n[nH]3)C2)C1` [compound 900] the figure was 25.3 nM; with `CS(=O)(=O)c1ccc(-c2ccc(C3CN(C(=O)N4CC5(CC(c6nnc(C7CC7)[nH]6)C5)C4)C3)cc2)c(Cl)c1` [compound 338], 0.09 nM; with `O=C(N1CC2(CC(c3nc(C4CC4)n[nH]3)C2)C1)N1CC2(CN(Cc3nc(C(F)(F)F)co3)C2)C1` [compound 693], 24.5 nM. With `O=C(N1CC(c2cnc(CNC3(C(F)(F)F)CC3)cn2)C1)N1CC2(CC(c3nc(C4CC4)n[nH]3)C2)C1` [compound 443] the figure was 2.47 nM; with `CS(=O)(=O)c1cc(CC2CC3(C2)CN(C(=O)N2CC4(CC(c5ncn[nH]5)C4)C2)C3)ccc1C(F)(F)F` [compound 753], 1490 nM. With `O=C(N1CC2(CC(Cc3ccc(OC(F)(F)F)cc3)C2)C1)N1CC2(CC(c3nc(C4CC4)n[nH]3)C2)C1` [compound 857] the figure was 0.02 nM; with `O=C(N1CC2(CCC(Cc3ccc(C(F)(F)F)cn3)CC2)C1)N1CC2(CC(c3nc(C4CC(F)(F)C4)n[nH]3)C2)C1` [compound 574], 65.4 nM; with `O=C(N1CCC(c2nn(CCO)c3ccc(C(F)(F)F)cc23)CC1)N1CC2(CC(c3nnc(C4CC4)[nH]3)C2)C1` [compound 519], 13.9 nM. As for `O=C(N1CC2(CC(Cn3cc(OC(F)(F)F)ccc3=O)C2)C1)N1CC2(CC(c3nc(C4CC4)n[nH]3)C2)C1` [compound 757], the 50% inhibitory concentration (IC50) came out at 3.77 nM.

As to `O=C(N1CC2(CC(c3nc(C4CC4)n[nH]3)C2)C1)N1CC2(CN(Cc3nccn3C(F)(F)F)C2)C1` [compound 709], the IC50 was 24.3 nM.

The compound `N#Cc1ccc(CC2CC3(C2)CN(C(=O)N2CC4(CC(c5nc(C6CC6)n[nH]5)C4)C2)C3)c(F)c1` [compound 772] had an IC50 of 0.05 nM.

Regarding `N=S(=O)(c1ccc(C2CN(C(=O)N3CC4(CC(c5nc(C6CC6)n[nH]5)C4)C3)C2)cc1)C1CC1` (centres unmarked) [compound 745], the 50% inhibitory concentration (IC50) stood at 6.37 nM. `O=C(N1CC2(CC(Cc3nc(C(F)(F)F)no3)C2)C1)N1CC2(CC(c3nc(C4CC4)n[nH]3)C2)C1` [compound 683] yielded an IC50 of 0.21 nM. For `O=C(N1CC2(CC(c3nc(C4CC4)n[nH]3)C2)C1)N1CC2(CN(Cc3cc(C(F)(F)F)no3)C2)C1` [compound 672], it took 8.31 nM to reach half-maximal inhibition (IC50).

In turn, `O=C(N1CC2(CCC(Cc3ccc(Cl)cn3)CC2)C1)N1CC2(CC(c3nnc(C4CC4)[nH]3)C2)C1` [compound 138] registered a half-inhibitory concentration (IC50) of 0.3 nM. The figure for `O=C(N1CC(c2ccc(C3(C(F)(F)F)CC3)cn2)C1)N1CC2(CC(c3nnc(C4CC4)[nH]3)C2)C1` [compound 236] is 4.52 nM; for `O=C(N1CC(C23CC(c4ccc(F)cc4)(C2)C3)C1)N1CC2(CC(c3nc(C4CC4)n[nH]3)C2)C1` [compound 773] it is 1.31 nM. The figure for `O=C(N1CC2(CC(c3nc(C4CC4)n[nH]3)C2)C1)N1CC2(CN(Cc3ccn(CCC(F)(F)F)n3)C2)C1` [compound 972] is 81.1 nM. The figure for `O=C(N1CC(c2ccc(NC3(C(F)(F)F)CC3)cc2)C1)N1CC2(CC(c3nnc(C4CC4)[nH]3)C2)C1` [compound 274] is 0.23 nM.

In turn, `CS(=N)(=O)c1cccc(CC2CC3(C2)CN(C(=O)N2CC4(CC(c5nc(C6CC(F)(F)C6)n[nH]5)C4)C2)C3)c1` (centres unmarked) [compound 493] showed a 50% inhibitory concentration (IC50) of 956 nM.

Regarding `O=C(N1CC2(CC(CNC3(C(F)(F)F)COC3)C2)C1)N1CC2(CC(c3nnc(C4CC4)[nH]3)C2)C1` [compound 354], the concentration for half-maximal inhibition (IC50) worked out at 5.39 nM. `O=C(N1CC2(CC(c3nc(C4CC4)n[nH]3)C2)C1)N1CC2(CN(Cc3nccn3CC(F)(F)F)C2)C1` [compound 698]: the midpoint of inhibition, the IC50, lay at 55.9 nM. `CP(C)(=O)c1ccc(CC2CC3(C2)CN(C(=O)N2CC4(CC(c5nnc(C6CC6)[nH]5)C4)C2)C3)c(C(F)(F)F)c1` [compound 890] showed an IC50 of 1.22 nM. With `NC(=O)C1CC(F)(F)CCN1c1ccc(C2CN(C(=O)N3CC4(CC(c5nnc(C6CC6)[nH]5)C4)C3)C2)cc1` (centres unmarked) [compound 385] the figure was 3.76 nM; with `O=C(N1CC2(CC(c3nc(C4(F)CC4)n[nH]3)C2)C1)N1CC2(CN(Cc3nc(C(F)(F)F)cs3)C2)C1` [compound 643], 6.67 nM; with `O=C(N1CC2(CC(Cc3ccc4cnc(C(F)(F)F)n4c3)C2)C1)N1CC2(CC(c3nc(C4CC4)n[nH]3)C2)C1` [compound 992], 0.16 nM. With `O=C(N1CC2(CC(Cc3cc(F)cc(C(F)(F)F)c3)C2)C1)N1CC2(CC(c3nnc(C4CC4)[nH]3)C2)C1` [compound 121] the figure was 0.01 nM; with `O=C(N1CC2(CC(Cc3ccc(S(=O)(=O)C(F)(F)F)cn3)C2)C1)N1CC2(CC(c3nc(C4CC4)n[nH]3)C2)C1` [compound 813], 0.18 nM.

For the origin of these results see patent publication US20250099448A1, “HETEROCYCLIC COMPOUNDS” (Hoffmann-La Roche Inc., priority 2022, published 2025).
